# Literature values as cited in US7994139B2, “Antiviral therapeutic agents” (BioCryst Pharmaceuticals, Inc., priority 2008, dated 2011).
# Tested on: HCV
smiles,measurement,setting,value
"NC(=O)c1ncn([C@@H]2O[C@H](CO)[C@@H](O)[C@H]2O)n1 [Ribavirin, 1-β-D-ribofuranosyl-1-1,2,4-triazole-3-carboxamide]",serum levels of HCV-RNA,"patients, used as sole treatment",does not lower serum levels of HCV-RNA
same,patients in whom serum amino transferase levels are reduced to normal,ribavirin alone,40%
